Counter-ions that a name gives are not always drawn. Like-named read-outs stand apart in the source and are kept apart here. Bounds are passed on as bounds.

From patent publication US9908895B2, “Tricyclic fused thiophene derivatives as JAK inhibitors” (Incyte Corporation, priority 2012, dated 2018) come the findings set out here.

Holding throughout (format): biochemical
Assay [1] relates to human JAK1. In words: In vitro JAK kinase assay (HTRF), JAK1. The conditions noted are these: ratio of JAK2 IC50 to JAK1 IC50 at 1 mM ATP. The procedure, abridged:
(§1)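 Baculovirus-expressed catalytic domains (JAK1 a.a. 837-1142, JAK2 a.a. 828-1132) phosphorylate 500 nM biotinylated peptide at 1 mM ATP, Tris pH 7.8, 1 h at room temperature. EDTA stop and HTRF detection with Eu-Py20/SA-APC; IC50 values derived.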

A further assay has as its target human JAK2 (Homo sapiens (Human), UniProt O60674). In words: In vitro JAK kinase assay (HTRF), JAK2. The conditions noted are these: 1 mM ATP. As for the experimental part: Compounds herein were tested for inhibitory activity of JAK targets according to the following in vitro assay described in Park et al., Analytical Biochemistry 1999, 269, 94-104. The catalytic domains of human JAK1 (a.a. 837-1142), JAK2 (a.a. 828-1132) and JAK3 (a.a. 781-1124) were expressed using baculovirus in insect cells and purified. The catalytic activity of JAK1, JAK2 or JAK3 was assayed by measuring the phosphorylation of a biotinylated peptide. The phosphorylated peptide was detected by homogenous time resolved fluorescence (HTRF). IC50s of compounds were measured for each kinase in the 40 μL reactions that contain the enzyme, ATP and 500 nM peptide in 50 mM Tris (pH 7.8) buffer with 100 mM NaCl, 5 mM DTT, and 0.1 mg/mL (0.01%) BSA. For the 1 mM IC50 measurements, ATP concentration in the reactions was 1 mM. Reactions were carried out at room temperature for 1 hour and then stopped with 20 μL 45 mM EDTA, 300 nM SA-APC, 6 nM Eu-Py20 in assay buffer (Perkin Elmer, Boston, Mass.). Binding to the Europium labeled antibody took place for 40 minutes and HTRF signal was measured on a PHERA star plate reader (BMG, Cary, N.C.). The Example compounds were each tested in the Example A assay (see Table 1 for data for the compounds of the examples as tested by the assay of Example A at 1 mM ATP).

The target of assay [2] is human JAK1 (Homo sapiens, UniProt P23458). In words: In vitro JAK kinase assay (HTRF), JAK1. As to conditions: 1 mM ATP. The procedure, abridged:
as §1

human JAK2, sequence (O60674 828-1132): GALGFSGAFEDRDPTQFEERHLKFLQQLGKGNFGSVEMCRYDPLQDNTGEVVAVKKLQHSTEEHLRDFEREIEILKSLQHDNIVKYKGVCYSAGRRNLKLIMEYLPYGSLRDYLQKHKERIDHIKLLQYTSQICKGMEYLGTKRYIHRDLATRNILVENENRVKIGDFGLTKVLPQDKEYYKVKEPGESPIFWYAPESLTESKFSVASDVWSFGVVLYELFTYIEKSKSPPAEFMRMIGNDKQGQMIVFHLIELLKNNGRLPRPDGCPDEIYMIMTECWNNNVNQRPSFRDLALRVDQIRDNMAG

With `C[C@@H](O)c1nc2cnc3ccsc3c2n1C1CCC(O)(CC#N)CC1` (single isomer, unassigned) [24 (second peak)], in the assay on human JAK1 [1], the JAK2/JAK1 is recorded as above 10. Besides, the IC50 against human JAK2 was above 2000 nM. In the case of `Cc1nc2cnc3ccsc3c2n1[C@H]1CC[C@H](CC#N)[C@H](O)C1` (racemic) [Example 34, Mixture of [(1R,2R,4S)-2-hydroxy-4-(2-methyl-1H-imidazo[4,5-d]thieno[3,2-b]pyridin-1-yl)cyclohexyl]acetonitrile trifluoroacetate and [(1S,2S,4R)-2-hydroxy-4-(2-methyl-1H-imidazo[4,5-d]thieno[3,2-b]pyridin-1-yl)cyclohexyl]acetonitrile trifluoroacetate], the IC50 is below 1000 nM on human JAK1 [2] (read-out: JAK1 IC50) and below 2000 nM on human JAK2.

Regarding `Cc1nc2cnc3ccsc3c2n1[C@@H]1CC[C@@H](CC#N)[C@H](O)C1.Cc1nc2cnc3ccsc3c2n1[C@H]1CC[C@H](CC#N)[C@@H](O)C1` (mixture of isomers) [41 (first peak), [(1R,2S,4S)-4-(2-Methyl-1H-imidazo[4,5-d]thieno[3,2-b]pyridin-1-yl)-2-hydroxycyclohexyl]acetonitrile and [(1S,2R,4R)-4-(2-methyl-1H-imidazo[4,5-d]thieno[3,2-b]pyridin-1-yl)-2-hydroxycyclohexyl]acetonitrile], the IC50 at human JAK1 [2] (JAK1 IC50 (nM)) is below 100 nM; on human JAK2, below 1000 nM. For the molecule `Cc1nc2cnc3ccsc3c2n1[C@@H]1CC[C@@H](CC#N)[C@H](O)C1.Cc1nc2cnc3ccsc3c2n1[C@H]1CC[C@H](CC#N)[C@@H](O)C1` (mixture of isomers) [41 (second peak), [(1R,2S,4S)-4-(2-Methyl-1H-imidazo[4,5-d]thieno[3,2-b]pyridin-1-yl)-2-hydroxycyclohexyl]acetonitrile and [(1S,2R,4R)-4-(2-methyl-1H-imidazo[4,5-d]thieno[3,2-b]pyridin-1-yl)-2-hydroxycyclohexyl]acetonitrile], on human JAK1 [2] (JAK1 IC50 (nM)), the IC50 was above 2000 nM. On to `C[C@@H](O)c1nc2cnc3ccsc3c2n1C1CCNCC1F` (single isomer, unassigned) [9 (2nd peak)], for which, at human JAK1 [2] (read-out: JAK1 IC50), the IC50 was below 1000 nM. Also, in the assay with human JAK1 [1], the JAK2/JAK1 is recorded as above 10. On to `C[C@@H](O)c1nc2cnc3ccsc3c2n1C1CCN(CCC#N)CC1` [Example 16, 3-(4-{2-[(1R)-1-Hydroxyethyl]-1H-imidazo[4,5-d]thieno[3,2-b]pyridin-1-yl}piperidin-1-yl)propanenitrile], for which the JAK2/JAK1 with human JAK1 [1] was above 10. `CC(C)OC(=O)NC[C@H]1CC[C@H](n2c(CC#N)nc3cnc4ccsc4c32)CC1` [Example 88, Isopropyl({trans-4-[2-(cyanomethyl)-1H-imidazo[4,5-d]thieno[3,2-b]pyridin-1-yl]cyclohexyl}methyl)carbamate]: the JAK2/JAK1 in the assay on human JAK1 [1] is above 10.
